Where a name gives a salt, the structure may show the parent alone. Read-outs that look alike come from different tables or passages of the source.
Key:
[1] = target: AgOAR45A (Anopheles gambiae, UniProt Q7PRZ8, DEL426-427); assay: cell-based
[2] = target: T1, AgOAR45B (Anopheles gambiae, UniProt F5HJT6); format: cell-based; settings: for IC50: read-out: IC 50 (antagonist), in the presence of 1 μM octopamine
Description: GloResponse™CRE-luc2P HEK293 reporter cell line (Promega) were maintained as adherent culture at 37°C, 5% CO2 in DMEM (Invitrogen) supplemented with 10% fetal calf serum (Atlanta), and […] hygromycin B. Transfection of cells was carried out using the Amaxa Nucleofector kit per the manufacturer’s instructions. […] Stable lines were created by applying […] G418 for three weeks. Stable clones of AgOAR45B expressing HEK293 reporter cells were created through two rounds of limiting dilution cloning.
Intracellular cAMP increase was monitored through a CRE-luc reporter construct in HEK293 cells (Promega). Stable cell lines were plated at a density of 4×10^4 cells per well in white 96-well assay plates (Corning, Cat. #3917). Cells were immediately treated with the various compounds, and returned to the incubator for four hours before being assayed. cAMP was quantified through luciferase production using the Dual-Glo luciferase assay kit (Promega) following the manufacturer’s instructions. Luciferase units were normalized to the cell number using the internal Rluc construct in the pF9A expression plasmid.

[3] = target: T1, AgOAR45B; assay: 3H-Yohimbine competition radioligand binding assay on membranes; settings: competition with 16 nM 3H-Yohimbine
Description: Cells in T75 flasks were washed with 10 ml of PBS, removed by scraping, centrifuged at 500 g, and then resuspended in 5 ml of lysis buffer, 50 mM Tris-Cl pH 7.4. Cells were incubated on ice for 10 min and homogenized with a Dounce homogenizer with 30 strokes. The homogenate and 5 ml wash with lysis buffer were then centrifuged at 23,000 g for 30 min at 4°C to pellet crude membranes. The resulting pellet was re-suspended in 50 mM Tris-Cl pH 7.4, 5 mM MgCl2, 0.5 mM EDTA pH 7.4 and quantified by micro BCA assay (Thermo).
Radioligand binding assays were carried out using ^3H-Yohimbine to determine binding affinity of the octopamine receptor with different compounds. Isolated membranes, 30 μg per well, were incubated in the presence of 16 nM ^3H-Yohimbine (American Radiolabeled Chemicals) in binding buffer, and various concentrations of compounds. The final reaction volume was […] per well in a 96-well assay plate. […] clonidine was used to determine non-specific binding in each experiment. After a two-hour incubation, membranes were collected and washed on filter mats, pretreated with 0.3% polyethylenimine (Sigma) using a Brandel 96-well harvester and counted in a Perkin Elmer Microbeta counter.

[4] = read-out: EC 50 (agonist), AgOAR45B, HEK293-CRE-Luc cells

Sequence of AgOAR45A (Q7PRZ8 entry or part of it DEL426-427): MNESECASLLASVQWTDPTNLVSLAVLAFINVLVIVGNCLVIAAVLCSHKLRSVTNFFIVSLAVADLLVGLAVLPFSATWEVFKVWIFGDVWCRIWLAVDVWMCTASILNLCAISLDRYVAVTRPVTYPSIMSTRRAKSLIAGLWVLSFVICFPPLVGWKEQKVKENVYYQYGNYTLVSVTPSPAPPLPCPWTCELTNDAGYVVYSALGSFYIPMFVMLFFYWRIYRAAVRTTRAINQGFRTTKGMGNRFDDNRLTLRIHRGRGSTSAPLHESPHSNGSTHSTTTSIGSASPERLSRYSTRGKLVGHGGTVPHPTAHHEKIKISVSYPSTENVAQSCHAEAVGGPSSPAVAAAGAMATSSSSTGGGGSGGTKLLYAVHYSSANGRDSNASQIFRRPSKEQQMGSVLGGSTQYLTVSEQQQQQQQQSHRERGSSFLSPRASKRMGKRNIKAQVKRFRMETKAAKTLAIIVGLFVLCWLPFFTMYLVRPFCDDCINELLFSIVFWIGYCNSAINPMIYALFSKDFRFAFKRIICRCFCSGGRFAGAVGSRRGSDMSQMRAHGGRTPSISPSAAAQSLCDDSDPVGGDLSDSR
T1 sequence (F5HJT6 entry or part of it): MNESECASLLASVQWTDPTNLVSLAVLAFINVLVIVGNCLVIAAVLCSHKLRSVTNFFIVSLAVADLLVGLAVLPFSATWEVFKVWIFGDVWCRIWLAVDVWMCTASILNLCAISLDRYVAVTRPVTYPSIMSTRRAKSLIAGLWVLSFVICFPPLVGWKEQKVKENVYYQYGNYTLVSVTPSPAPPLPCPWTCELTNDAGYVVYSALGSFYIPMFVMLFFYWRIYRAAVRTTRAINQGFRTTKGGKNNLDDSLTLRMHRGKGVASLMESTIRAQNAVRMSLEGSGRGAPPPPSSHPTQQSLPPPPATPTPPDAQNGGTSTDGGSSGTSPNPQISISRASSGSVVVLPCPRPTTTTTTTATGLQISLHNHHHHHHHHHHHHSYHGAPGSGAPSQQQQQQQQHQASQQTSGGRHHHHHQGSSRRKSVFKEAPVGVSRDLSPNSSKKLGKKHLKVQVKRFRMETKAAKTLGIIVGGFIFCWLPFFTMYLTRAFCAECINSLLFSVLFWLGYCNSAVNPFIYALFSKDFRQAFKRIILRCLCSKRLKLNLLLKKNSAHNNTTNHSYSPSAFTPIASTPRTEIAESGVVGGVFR

SMILES	EC50 [1] [nM]	EC50 ([2]; Table 2, AgOAR45B reporter assay) [nM]	EC50 [2, 4] [nM]	Ki [3] [nM]	IC50 ([2]; AgOAR45B) [nM]
NCC(O)c1ccc(O)cc1 (racemic) [Octopamine, DL-octopamine]	53	17	17	7700	
CN(C)CCCN1c2ccccc2Sc2ccc(Cl)cc21 [Chlorpromazine, chlorpromazine]					9900
Clc1cccc(Cl)c1N=C1NCCN1 [Clonidine, clonidine]	2		0.24		
NCCc1ccc(O)c(O)c1 [Dopamine, dopamine]	> 50000		> 50000		
CCN(CC)CCNC(=O)c1cc(Cl)c(N)cc1OC [Metaclopramide, Metoclopramide hydrochloride]					> 50000
c1ccc2c(CC3=NCCN3)cccc2c1 [Naphazoline, naphazoline]	2.2		0.23		
Cc1ccc(N(CC2=NCCN2)c2cccc(O)c2)cc1 [Phentolamine, phentolamine]	10		5.8		
CC(CN1c2ccccc2Sc2ccccc21)N(C)C (stereo not drawn) [Promethazine, promethazine]					2000
NCCc1c[nH]c2ccc(O)cc12 [Serotonin, serotonin]	> 50000		> 50000		
c1ccc(CC2=NCCN2)cc1 [Tolazoline, tolazoline]	280		5		
NCCc1ccc(O)cc1 [Tyramine, tyramine]	4600		840		
